The values that follow come from patent US20230346827A1 (priority 2020, published 2023).

Test [1] relates to ALS patients. Briefly: ALSAQ-40 sub-scores in ALS patients, dextran sulfate 2 mg/kg s.c. weekly for ten weeks (Example 14). It counts as in vivo, human. Conditions: after 10 weeks of treatment. As to the method:
Dextran sulfate (ILB®, Tikomed AB, Viken, Sweden, WO 2016/076780) was administered at 2 mg/kg by […] subcutaneous injection once a week for ten weeks to 8 human patients suffering from ALS.
ALSAQ-40 was assessed pre-treatment and weekly thereafter for the 10 treatment weeks and for the visits at the follow-up period.

Test [2] deals with HUVEC + (IL-1β, TNFα and IFNy). The experiment in a line: BioMAP 3C system. It counts as cell-based, human. Particulars: annotated relative to vehicle controls. The source says:
(§1) Cell types and stimuli used in each system are as follows: 3C system [HUVEC + (IL-1β, TNFα and IFNy)], 4H system [HUVEC + (IL-4 and histamine)], LPS system [PBMC and HUVEC + LPS (TLR4 ligand)], SAg system [PBMC and HUVEC + TCR ligands], BT system [CD19+ B cells and PBMC + (α-IgM and TCR ligands)], BF4T system [bronchial epithelial cells and HDFn + (TNFα and IL-4)], BE3C system [bronchial epithelial cells + (IL-1β, TNFα and IFNy)], CASM3C system [coronary artery smooth muscle cells + (IL-1 β, TNFα and IFNy)], HDF3CGF system [HDFn + (IL-1β, TNFα, IFNy, EGF, bFGF and PDGF-BB)], KF3CT system [keratinocytes and HDFn + (IL-1β, TNFα, IFNy and TGFβ)], MyoF system [differentiated lung myofibroblasts + (TNFα and TGFβ)] and Mphg system [HUVEC and M1 macrophages + Zymosan (TLR2 ligand)].
(§2) Systems are derived from either single cell types or co-culture systems. Adherent cell types are cultured in 96 or 384-well plates until confluence, followed by the addition of PBMC (SAg and LPS systems). […] Soluble factors from supernatants are quantified using either HTRF® detection, bead-based multiplex immunoassay or capture ELISA. Overt adverse effects of test agents on cell proliferation and viability (cytotoxicity) are detected by sulforhodamine B (SRB) staining, for adherent cells, and alamarBlue® reduction for cells in suspension. […]

Test [3] relates to bronchial epithelial cells and HDFn + (TNFα and IL-4). The experiment in a line: BioMAP BF4T system. It is filed as cell-based, human. Conditions: annotated relative to vehicle controls.
From the text: as §1, §2

Test [4] has as its system PBMC and HUVEC + TCR ligands. The experiment in a line: BioMAP SAg system. It counts as cell-based, human. Particulars: annotated relative to vehicle controls.
From the text: as §1, §2

The test system of test [5] is human purified monocytes. The experiment in a line: Stimulated IL-6 release from human purified monocytes (ELISA). Conditions: 24 h, LMW-DS 60-600 µg/ml, heparin 2.0-20 µg/ml, dexamethasone 3.0 µM. It counts as cell-based. As to the method:
Peripheral blood mononuclear cells (PBMC) were isolated from healthy donors through Ficoll-Paque PLUS (GE Healthcare; 11778538) density centrifugation. Monocytes were purified using the EasySep™ human monocyte enrichment kit (StemCell) that purifies monocytes ‘untouched’ to maintain their phenotype.
Monocytes were cultured in the absence (unstimulated PBS vehicle controls) or presence of stimulation (LPS or peptidoglycan) in the absence (vehicle) or presence of LMW-DS (Tikomed AB, Viken, Sweden, WO 2016/076780; three concentrations; top concentration 600 µg/ml, 200 µg/ml and 60 µg/ml), heparin (2.0, 6.0 or 20 µg/ml; equivalent to 0.406, 1.218 and 4.06 units/ml; Sigma Aldrich) or dexamethasone (3.0 µM; Sigma Aldrich) for 24 hours at 37° C., 5% CO2. Following centrifugation, cell culture supernatants were removed and stored at -20° C. awaiting analysis for IL-6 by ELISA. Levels of IL-6 were quantified in the supernatant by ELISA (R&D systems) according to manufacturer’s instructions.

As for sodium salt of dextran sulfate [LMW-DS], in test [1], the “ALSAQ-40 ADL sub-score” value stood at 44.4 ± 24.7, the “ALSAQ-40 PM sub-score” value is recorded as 22.7 ± 20.2, the “decline of ALSAQ-40 ADL sub-score” value stood at 18.6% and the “decline of ALSAQ-40 PM sub-score” value is 16%. Moreover, in test [2], the Increased biomarker activity entry is “IL-8”. The Increased biomarker activity entry in test [3] is “Eot3”. The Increased biomarker activity entry in test [4] is listed as “IL-8”. The “LPS-stimulated IL-6 release” value in test [5] (LPS 0.01 ng/ml) was “concentration dependent statistically significant inhibition”. Moreover, the “peptidoglycan-stimulated IL-6 release” value in test [5] (peptidoglycan 30 ng/ml) is “concentration dependent statistically significant increase”.
